{"source": "patent US20190010182A1", "about": "“SALT OF (SS)-ADENOSYL METHIONINE WITH INOSITOL HEXAPHOSPHATE, AND PROCESS FOR THE PREPARATION THEREOF” (GNOSIS S.p.A., priority 2017, published 2019)", "key": {"[1]": {"assay": "Pharmacokinetic profile in the rat (SAMe blood levels, AUC)", "assay_type": "in vivo, Sprague Dawley rats", "settings": "by cannula in water, 134 mg/kg and 95 mg/kg, compared with SAMe Pates at equal SAMe ion dose", "description": "70 Sprague Dawley rats (35 male and 35 female), aged 7-9 weeks and weighing 176-200 g, were acclimatized in a cage for two weeks before the start of the treatment, maintained at +22° C. and 55% relative humidity. The rats were fed on 4RF 21 (Mucedola) feed, and weighed before the beginning and at the end of the test. At the time of treatment, 32 animals per group (16 males and 16 females) were selected from those with the most similar weights, and assigned to the two treatments.\nThe product was administered by cannula, dissolved in water, at two dose levels, namely 134 mg/kg and 95 mg/kg. The rats were fasted overnight before administration and for a further two hours after administration. The two equimolar doses guaranteed an equal intake of SAMe ion.\nThe blood levels of SAMe were assayed by taking a sample from the tail vein at fixed intervals, at times 0 (pre-administration), 0.5, 1, 1.5, 2, 4, 8 and 24 hours after administration. The blood samples were centrifuged after addition of EDTA to separate the plasma from the cell fraction. The plasma was then analysed by HPLC according to the method reported in Wise, Fullerton J. Liq. Chromatogr. […]\nThe SAMe plasma concentration values are also used to determine, according to the Area Under Curve (AUC) calculation, the total quantity of active ingredient absorbed, obtaining the values set out in FIG. 2."}, "[2]": {"assay": "stability test, storage at +25° C. in a thermostatic stove up to 6 months", "assay_type": "physicochemical", "settings": "FIG. 4", "description": "FIG. 3 depicts SAMe ion content analysis in a product stability test, storing samples at 25° C. in a thermostatic stove up to 6 months. The test measured the SAMe ion content (as percent loss of SAMe ion) in the (SS)SAMe inositol hexaphosphate salt (samples AT1003 and AT1005), the commercial SAMe 1,4-butanedisulphonate salt (sample SD4Test1), the commercial SAMe Pates salt (S1S1057B) and the SAMe-metal-phytate complex obtained according to EP1896489 (sample 04B17DS).\nFIG. 4 further depicts SAMe ion content analysis in a product stability test for diastereomeric purity, storing samples at 25° C. in a thermostatic stove up to 6 months. The test measured the (SS)SAMe diastereoisomer ion content (as percent loss of (SS)SAMe diastereomer) in the (SS)SAMe inositol hexaphosphate salt (samples AT1003 and AT1005), and also in the commercial SAMe 1,4-butanedisulphonate salt (sample SD4Test1), the commercial SAMe Pates salt (S1S1057B) and the SAMe-metal-phytate complex obtained according to EP1896489 (sample 04B17DS).\nSome samples of the products obtained as described in the previous examples are subjected to stability tests, storing them at +25° C., in a thermostatic stove. […]"}, "[3]": {"assay": "accelerated stability test, thermostatic stove at +55° C., 5 days", "assay_type": "physicochemical", "description": "The product obtained as described in Example 6 (comprising SAMe and phytic acid) and a sample of SAMe inositol hexaphosphate obtained as described in Example 5 are subjected to an accelerated stability test, incubated in a thermostatic stove at +55° C., and the analyses are repeated after 5 days.\nThe samples are analysed for the following values:\nSAMe ion content (total of all enantiomers) determined by HPLC and expressed as % by weight enantiomeric purity, determined by HPLC and expressed as % of (SS) isomer active ingredient content, calculated by multiplying the previous two values and expressed as % by weight of (SS)SAMe overall purity, determined by HPLC as SAMe area/total area of chromatogram, expressed as area %. The figure comprises the values of all known degradation impurities."}}, "data": [{"compound": "C[S@@+](CC[C@H](N)C(=O)[O-])C[C@H]1O[C@@H](n2cnc3c(N)ncnc32)[C@H](O)[C@@H]1O.O=P(O)(O)O[C@H]1[C@H](OP(=O)(O)O)[C@@H](OP(=O)(O)O)[C@H](OP(=O)(O)O)[C@@H](OP(=O)(O)O)[C@H]1OP(=O)(O)O", "note": "[AT1003, (SS)-adenosyl methionine with myo-inositol 1,2,3,4,5,6 hexakisphosphate]", "values": [{"measurement": "plasma concentration of active ingredient (SAMe)", "setting": "[1]; FIG. 1", "result": "higher plasma concentration"}, {"measurement": "absorption (AUC 8 hours of SAMe plasma concentration)", "setting": "[1]; FIG. 2", "result": "better absorption"}, {"measurement": "(SS)SAMe isomer content stability (percent loss of (SS)SAMe diastereomer)", "setting": "[2]", "result": "stable for longer"}, {"measurement": "content of the active ingredient (SS)SAMe after the stress test", "setting": "[3]; 5 days at +55° C., compared with 04B17DS", "result": "maintains a higher content"}, {"measurement": "degradation by isomerization after the stress test", "setting": "[3]; 5 days at +55° C., comparison of AT1003 and 04B17DS", "result": "surprisingly lower"}, {"measurement": "(SS) enantiomer (enantiomeric purity, HPLC), final value", "setting": "[3]; after 5 days at +55° C.", "result": 69.56, "unit": "%"}, {"measurement": "SAMe content (SAMe ion, total of all enantiomers, HPLC), final value", "setting": "[3]; after 5 days at +55° C.", "result": 30.6, "unit": "% w/w"}, {"measurement": "Purity (% area), final value", "setting": "[3]; after 5 days at +55° C., HPLC SAMe area/total area", "result": 90.0, "unit": "% area"}, {"measurement": "(SS)SAMe content (active ingredient content), final value", "setting": "[3]; after 5 days at +55° C., SAMe content x enantiomeric purity, % by weight", "result": 21.28, "unit": "%"}, {"measurement": "(SS) enantiomer (enantiomeric purity, HPLC), starting value", "setting": "[3]; before incubation at +55° C.", "result": 77.2, "unit": "%"}, {"measurement": "SAMe content (SAMe ion, total of all enantiomers, HPLC), starting value", "setting": "[3]; before incubation at +55° C.", "result": 34.45, "unit": "% w/w"}, {"measurement": "Purity (% area), starting value", "setting": "[3]; before incubation at +55° C., HPLC SAMe area/total area", "result": 95.98, "unit": "% area"}, {"measurement": "(SS)SAMe content (active ingredient content), starting value", "setting": "[3]; before incubation at +55° C., SAMe content x enantiomeric purity, % by weight", "result": 26.59, "unit": "%"}]}]}
